{
  "source": "patent US20150094327A1",
  "about": "“COMPOSITIONS AND METHODS FOR […]” (priority 2012, published 2015)",
  "key": {"[1]": {"assay": "Cytotoxicity, CellTiter-Glo Luminescent Cell Viability Assay", "details": "for Cytotoxicity, LD50: CellTiter-Glo; for cytotoxicity: compared with compound 1"}, "fowlpox virus resolvase": {"molecular_target": "T1, fowlpox virus resolvase (Fowlpox virus, UniProt Q9J546)", "T1 sequence (Q9J546 1-156)": "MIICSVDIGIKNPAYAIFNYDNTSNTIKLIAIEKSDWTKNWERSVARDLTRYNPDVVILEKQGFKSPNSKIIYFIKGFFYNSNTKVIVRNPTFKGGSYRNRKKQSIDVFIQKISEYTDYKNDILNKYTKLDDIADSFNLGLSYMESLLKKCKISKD", "assay": "Fluorescence polarization (FP) assay of bulged DNA substrate cleavage by fowlpox resolvase", "assay_type": "biochemical", "details": "for IC50: off-center bulge substrate 2 nM, 10 nM fowlpox resolvase, 37° C., 1 hr; for activity in the FP assay: compared with compound 1 or with the N-hydroxy parent"}, "vaccinia virus WR": {"test_system": "vaccinia virus WR", "assay": "microbe, parasite or virus in culture", "assay_type": "cell-based", "details": "for IC50: Orthopoxvirus vaccinia"}, "fowlpox resolvase": {"test_system": "fowlpox resolvase", "assay": "Holliday junction substrate cleavage by fowlpox resolvase, gel based assay", "assay_type": "biochemical, fowlpox virus", "details": "authentic Holliday junction substrates in vitro"}, "variola topoisomerase": {"molecular_target": "variola topoisomerase (Variola virus, UniProt P32989)", "sequence (P32989 whole entry, looked up)": "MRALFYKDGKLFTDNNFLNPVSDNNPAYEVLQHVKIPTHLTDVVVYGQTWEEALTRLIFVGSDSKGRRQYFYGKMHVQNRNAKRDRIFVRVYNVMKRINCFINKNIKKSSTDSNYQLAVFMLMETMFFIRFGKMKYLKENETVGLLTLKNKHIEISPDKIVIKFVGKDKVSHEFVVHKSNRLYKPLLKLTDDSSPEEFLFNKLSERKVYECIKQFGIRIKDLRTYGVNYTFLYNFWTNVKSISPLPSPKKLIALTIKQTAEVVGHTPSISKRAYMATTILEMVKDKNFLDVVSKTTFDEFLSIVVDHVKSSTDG", "assay_type": "biochemical"}, "[2]": {"details": "48 h, read-out: Antiviral assay, IC50"}},
  "note": "Entries after “also recorded” stand apart in the source; their conditions may differ. Read-outs that look alike come from different tables or passages of the source.",
  "data": [
    {"smiles": "CCOC(=O)c1c(O)c2cc(CCc3ccc(C(F)(F)F)cc3)cnc2n(O)c1=O", "note": "[Compound 5, Ethyl 1,4-dihydroxy-2-oxo-6-(4-(trifluoromethyl)phenethyl)-1,2-dihydro-1,8-naphthyridine-3-carboxylate]", "values": [
      {"measurement": "Cytotoxicity, LD50", "setting": "[1]", "result": "20 ± 12", "unit": "µM"},
      {"measurement": "IC50", "setting": "fowlpox virus resolvase", "result": "14 ± 7", "unit": "µM"},
      {"measurement": "IC50", "setting": "vaccinia virus WR; [2]", "result": "12 ± 1", "unit": "µM"},
      {"measurement": "Log P", "setting": "Log P (hydrophobicity)", "result": 3.60}
    ]},
    {"smiles": "O=c1c(-c2ccccc2)c(O)c2cc(-c3cccc(-c4ccccc4)c3)cnc2n1O", "note": "[Compound 1, 6-(Biphenyl-3-yl)-1,4-dihydroxy-3-phenyl-1,8-naphthyridin-2(1/H)-one]", "values": [
      {"measurement": "Cytotoxicity, LD50", "setting": "[1]", "result": "13 ± 4", "unit": "µM"},
      {"measurement": "inhibition of Holliday junction cleavage", "setting": "fowlpox resolvase", "result": "effective inhibition"},
      {"measurement": "IC50", "setting": "vaccinia virus WR; [2]", "result": "4 ± 1", "unit": "µM"},
      {"measurement": "IC50", "setting": "vaccinia virus WR; read-out: antiviral assays IC50", "result": 4, "unit": "µM"}
    ]},
    {"smiles": "O=c1c(-c2ccccc2)c(O)c2cc(/C=C/c3ccc(C(F)(F)F)cc3)cnc2n1OCc1ccccc1", "note": "[Compound 3]", "values": [
      {"measurement": "IC50", "setting": "fowlpox virus resolvase", "result": "> 250", "unit": "µM"},
      {"measurement": "IC50", "setting": "vaccinia virus WR; [2]", "result": "> 350", "unit": "µM"},
      {"measurement": "Log P", "setting": "Log P (hydrophobicity)", "result": 6.85}
    ]},
    {"smiles": "CCOC(=O)c1c(O)c2cc(-c3cccc(OC)n3)cnc2n(OCc2ccccc2)c1=O", "note": "[Compound 8, Ethyl 1-(benzyloxy)-4-hydroxy-6-(6-methoxypyridin-2-yl)-2-oxo-1,2-dihydro-1,8-naphthyridine-3-carboxylate]", "values": [
      {"measurement": "activity in the FP assay", "setting": "fowlpox virus resolvase", "result": "abolished activity"},
      {"measurement": "IC50", "setting": "fowlpox virus resolvase", "result": "> 250", "unit": "µM"},
      {"measurement": "IC50", "setting": "vaccinia virus WR; [2]", "result": "> 350", "unit": "µM"},
      {"measurement": "Log P", "setting": "Log P (hydrophobicity)", "result": 3.54}
    ]},
    {"smiles": "COc1ccc(CCc2cnc3c(c2)c(O)c(-c2ccccc2)c(=O)n3O)cc1", "note": "[Compound 4, 1,4-Dihydroxy-6-(4-methoxyphenethyl)-3-phenyl-1,8-naphthyridin-2(1H)-one]", "values": [
      {"measurement": "Cytotoxicity, LD50", "setting": "[1]", "result": "10 ± 1", "unit": "µM"},
      {"measurement": "cytotoxicity", "setting": "[1]", "result": "no reduction in cytotoxicity"},
      {"measurement": "activity in the FP assay", "setting": "fowlpox virus resolvase", "result": "slightly less potent"},
      {"measurement": "IC50", "setting": "vaccinia virus WR; [2]", "result": "11 ± 1", "unit": "µM"}
    ]},
    {"smiles": "CCOC(=O)c1c(O)c2cc(-c3cccc(OC)n3)cnc2n(O)c1=O", "note": "[Compound 7, Ethyl 1,4-dihydroxy-6-(6-methoxypyridin-2yl)-2-oxo-1,2-dihydro-1,8-naphthyridine-3-carboxylate]", "values": [
      {"measurement": "Cytotoxicity, LD50", "setting": "[1]", "result": "156 ± 28", "unit": "µM"},
      {"measurement": "cytotoxicity", "setting": "[1]", "result": "greatly increased"},
      {"measurement": "inhibition of variola topoisomerase activity", "setting": "variola topoisomerase", "result": "no Inhibitory activity; also recorded: lack of inhibition"},
      {"measurement": "inhibition of Holliday junction cleavage", "setting": "fowlpox resolvase", "result": "inhibition of cleavage"},
      {"measurement": "activity in the FP assay", "setting": "fowlpox virus resolvase", "result": "slight increase over compound 1"},
      {"measurement": "IC50", "setting": "fowlpox virus resolvase", "result": "11 ± 2", "unit": "µM"},
      {"measurement": "antiviral activity", "setting": "vaccinia virus WR", "result": "slightly increased; also recorded: showed antiviral activity at concentrations below cytotoxic levels"},
      {"measurement": "IC50", "setting": "vaccinia virus WR; [2]", "result": "25 ± 16", "unit": "µM"},
      {"measurement": "Log P", "setting": "Log P (hydrophobicity)", "result": 1.43}
    ]},
    {"smiles": "O=c1c(-c2ccccc2)c(O)c2cc(CCc3ccc(C(F)(F)F)cc3)cnc2n1O", "note": "[Compound 2, 1,4-Dihydroxy-3-phenyl-6-(4-(trifluoromethyl)phenethyl)-1,8-naphthyridin-2(1H)-one]", "values": [
      {"measurement": "Cytotoxicity, LD50", "setting": "[1]", "result": "15 ± 12", "unit": "µM"},
      {"measurement": "cytotoxicity", "setting": "[1]", "result": "no reduction in cytotoxicity"},
      {"measurement": "activity in the FP assay", "setting": "fowlpox virus resolvase", "result": "slightly less potent"},
      {"measurement": "IC50", "setting": "fowlpox virus resolvase", "result": "3 ± 2", "unit": "µM"},
      {"measurement": "IC50", "setting": "vaccinia virus WR; [2]", "result": "4 ± 1", "unit": "µM"},
      {"measurement": "Log P", "setting": "Log P (hydrophobicity)", "result": 4.94}
    ]},
    {"smiles": "CCOC(=O)c1c(O)c2cc(/C=C/c3ccc(C(F)(F)F)cc3)cnc2n(OCc2ccccc2)c1=O", "note": "[Compound 6, (E)-Ethyl 1-(benzyloxy)-4-hydroxy-2-oxo-6-(4-(trifluoromethyl)styryl)-1,2-dihydro-1,8-naphthyridine-3-carboxylate]", "values": [
      {"measurement": "activity in the FP assay", "setting": "fowlpox virus resolvase", "result": "abolished activity"},
      {"measurement": "IC50", "setting": "fowlpox virus resolvase", "result": "> 250", "unit": "µM"},
      {"measurement": "IC50", "setting": "vaccinia virus WR; [2]", "result": "> 350", "unit": "µM"},
      {"measurement": "Log P", "setting": "Log P (hydrophobicity)", "result": 5.50}
    ]}
  ]
}
